The source made the active and inactive calls.
Assays:
[1] = molecular target: T1, Streptokinase A (Streptococcus pyogenes serotype M1, UniProt P10520); experiment: viability-normalized secreted streptokinase activity reduction – plasminogen activation absorbance, OD405, dose response (AID 1914); format: functional, Streptococcus pyogenes M1 GAS;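 also: secreted streptokinase activity via plasminogen activation per viability signal from cell pellet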
T1 sequence (P10520 whole entry): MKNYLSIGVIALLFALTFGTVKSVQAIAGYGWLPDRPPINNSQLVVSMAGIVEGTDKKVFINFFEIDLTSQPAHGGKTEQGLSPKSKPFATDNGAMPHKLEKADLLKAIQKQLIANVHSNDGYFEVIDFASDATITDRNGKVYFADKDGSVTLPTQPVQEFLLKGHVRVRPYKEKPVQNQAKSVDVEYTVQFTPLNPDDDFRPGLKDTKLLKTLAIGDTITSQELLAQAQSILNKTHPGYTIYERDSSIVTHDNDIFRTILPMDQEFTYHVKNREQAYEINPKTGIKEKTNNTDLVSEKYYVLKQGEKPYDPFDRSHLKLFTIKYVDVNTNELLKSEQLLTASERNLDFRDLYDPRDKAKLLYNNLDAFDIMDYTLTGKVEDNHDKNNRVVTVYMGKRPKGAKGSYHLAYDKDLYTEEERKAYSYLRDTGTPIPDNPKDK

[2] = CCR5-tropic HIV-1 fusion blockers – cell-based, CCR5-tropic Env, dose response (AID 2279); format: functional
[3] = molecular target: Genome polyprotein (dengue virus type 2, UniProt P29990); experiment: flavivirus cap methylation enzyme inhibition – biochemical, confirmation dose response, primary screen (AID 588689); format: functional
[4] = molecular target: T2, Aminopeptidase N (Plasmodium falciparum FcB1/Columbia, UniProt O96935); experiment: malaria alanyl aminopeptidase activity blockers – biochemical, fluorogenic H-Leu-NHMec substrate, 1536-well (AID 1445); design: species or system Plasmodium falciparum 3D7, 3D7
T2 sequence (O96935 whole entry): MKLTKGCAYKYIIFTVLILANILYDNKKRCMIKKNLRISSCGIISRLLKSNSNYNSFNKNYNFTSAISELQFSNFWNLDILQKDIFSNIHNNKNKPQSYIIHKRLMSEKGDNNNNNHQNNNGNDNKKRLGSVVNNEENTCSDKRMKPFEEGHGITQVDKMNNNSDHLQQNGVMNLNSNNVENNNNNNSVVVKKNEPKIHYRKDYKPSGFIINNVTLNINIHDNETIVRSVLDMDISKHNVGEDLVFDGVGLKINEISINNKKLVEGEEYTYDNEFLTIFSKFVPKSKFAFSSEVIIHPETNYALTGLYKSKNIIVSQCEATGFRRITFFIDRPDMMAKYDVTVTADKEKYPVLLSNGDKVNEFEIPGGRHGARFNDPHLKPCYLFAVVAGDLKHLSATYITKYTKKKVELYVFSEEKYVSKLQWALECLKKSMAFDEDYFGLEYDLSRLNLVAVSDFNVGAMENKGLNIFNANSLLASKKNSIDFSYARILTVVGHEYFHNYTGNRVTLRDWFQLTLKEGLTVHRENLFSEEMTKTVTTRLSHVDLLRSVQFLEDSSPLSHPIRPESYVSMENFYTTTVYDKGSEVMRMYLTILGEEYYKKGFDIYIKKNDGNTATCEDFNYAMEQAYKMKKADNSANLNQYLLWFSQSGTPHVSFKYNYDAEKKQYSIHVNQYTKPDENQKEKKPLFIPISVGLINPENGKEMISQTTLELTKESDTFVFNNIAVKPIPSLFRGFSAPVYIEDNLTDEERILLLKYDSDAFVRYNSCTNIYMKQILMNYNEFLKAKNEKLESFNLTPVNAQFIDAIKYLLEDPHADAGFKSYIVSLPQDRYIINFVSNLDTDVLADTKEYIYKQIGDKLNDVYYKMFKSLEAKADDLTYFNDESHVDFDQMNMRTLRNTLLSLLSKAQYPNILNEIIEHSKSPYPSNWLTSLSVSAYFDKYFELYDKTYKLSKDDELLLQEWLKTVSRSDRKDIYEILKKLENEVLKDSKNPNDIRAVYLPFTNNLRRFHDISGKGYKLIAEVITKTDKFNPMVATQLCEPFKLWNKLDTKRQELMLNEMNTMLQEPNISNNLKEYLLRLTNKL

[5] = molecular target: T3, Replicative DNA helicase DnaB (Mycobacterium tuberculosis, UniProt P9WMR3); experiment: DnaB intein splicing inhibitors, dose response, biochemical, cell-free fluorescence (AID 449749); format: functional
T3 sequence (P9WMR3 whole entry): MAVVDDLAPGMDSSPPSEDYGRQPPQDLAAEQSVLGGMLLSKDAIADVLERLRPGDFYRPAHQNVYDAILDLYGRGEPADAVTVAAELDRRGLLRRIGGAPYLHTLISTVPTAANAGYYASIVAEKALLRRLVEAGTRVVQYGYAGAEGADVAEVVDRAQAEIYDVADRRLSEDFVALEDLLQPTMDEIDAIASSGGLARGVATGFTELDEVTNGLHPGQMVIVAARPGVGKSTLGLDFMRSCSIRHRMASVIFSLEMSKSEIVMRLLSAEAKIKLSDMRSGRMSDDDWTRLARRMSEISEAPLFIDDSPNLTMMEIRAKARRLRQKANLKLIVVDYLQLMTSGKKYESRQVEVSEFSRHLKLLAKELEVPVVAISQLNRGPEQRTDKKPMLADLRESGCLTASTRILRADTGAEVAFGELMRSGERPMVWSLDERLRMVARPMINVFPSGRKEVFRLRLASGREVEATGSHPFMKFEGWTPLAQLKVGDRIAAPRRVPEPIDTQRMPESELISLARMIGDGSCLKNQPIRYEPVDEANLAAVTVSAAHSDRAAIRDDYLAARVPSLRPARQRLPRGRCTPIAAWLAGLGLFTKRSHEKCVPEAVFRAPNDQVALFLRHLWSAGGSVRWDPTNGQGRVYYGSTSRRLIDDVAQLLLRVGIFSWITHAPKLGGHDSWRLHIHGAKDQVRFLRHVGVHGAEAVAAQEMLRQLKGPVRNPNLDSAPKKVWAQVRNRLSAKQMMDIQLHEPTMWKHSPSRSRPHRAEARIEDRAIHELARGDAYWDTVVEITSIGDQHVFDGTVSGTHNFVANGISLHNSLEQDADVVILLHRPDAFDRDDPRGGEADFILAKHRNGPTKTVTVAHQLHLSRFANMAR

[6] = tested on: Streptococcus sp. 'group A'; experiment: Streptococcus pyogenes SK(-)GAS viability under kanamycin – luminescence, BacTiterGlo, confirmation, counter-screen for streptokinase expression inhibitor project, dose response (AID 1900); format: functional, organism-based
[7] = tested on: Streptococcus; experiment: GAS UMAA2166 growth inhibition – luminescence, BacTiterGlo, counter-screen for streptokinase expression inhibitor project, dose response (AID 1915); format: functional, organism-based;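 also: potency for reduction of bacterial viability or growth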
[8] = molecular target: T4, Protein RecA (Mycobacterium tuberculosis, UniProt P9WHJ3); experiment: Fluorescence Cell-Free Homogeneous Dose Retest to Identify Inhibitors of RecA-Intein Splicing Activity. [Related pubchem assays (depositor defined):AID2097, AID2223, AID489010, AID492950]; format: functional
T4 sequence (P9WHJ3 whole entry): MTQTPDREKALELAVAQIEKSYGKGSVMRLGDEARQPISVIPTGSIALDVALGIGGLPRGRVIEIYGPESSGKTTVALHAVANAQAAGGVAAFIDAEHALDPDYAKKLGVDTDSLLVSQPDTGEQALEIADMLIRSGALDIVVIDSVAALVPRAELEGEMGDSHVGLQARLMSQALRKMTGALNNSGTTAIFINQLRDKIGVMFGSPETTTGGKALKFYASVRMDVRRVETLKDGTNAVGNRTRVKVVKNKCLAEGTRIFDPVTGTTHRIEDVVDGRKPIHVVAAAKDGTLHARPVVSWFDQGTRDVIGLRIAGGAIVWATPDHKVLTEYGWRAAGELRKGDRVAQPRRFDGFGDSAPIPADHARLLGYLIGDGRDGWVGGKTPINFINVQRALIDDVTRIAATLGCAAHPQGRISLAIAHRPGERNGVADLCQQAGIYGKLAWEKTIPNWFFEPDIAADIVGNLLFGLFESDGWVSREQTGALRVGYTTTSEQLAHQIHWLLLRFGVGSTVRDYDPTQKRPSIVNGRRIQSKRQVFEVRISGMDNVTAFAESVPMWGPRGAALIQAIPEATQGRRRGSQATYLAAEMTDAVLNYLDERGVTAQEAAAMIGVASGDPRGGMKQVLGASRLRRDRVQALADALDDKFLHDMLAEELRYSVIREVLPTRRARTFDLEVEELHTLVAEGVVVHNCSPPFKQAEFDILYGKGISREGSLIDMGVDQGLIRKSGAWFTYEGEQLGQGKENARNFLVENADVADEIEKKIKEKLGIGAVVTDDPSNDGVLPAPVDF

[9] = blockers of bursicon-stimulated LGR2 cAMP reporter – cell-based, HEK293, CRE-luciferase reporter, cherry pick, set 2, dose response (AID 743343); format: functional;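 also: transfected cells were stimulated with diluted bursicon conditioned medium after compound addition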
[10] = viability loss in HEK293 cells – cell-based, plate reader, cherry-picked samples, cytotoxicity control, dose response (AID 743446); format: functional
[11] = molecular target: Paired box protein Pax-8 (Homo sapiens, UniProt Q06710); experiment: PAX8 transcriptional activity inhibition in RMG-I – RMG-I cells, luciferase, cherry-pick, dose response (AID 687027); format: functional, cell-based;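 also: luciferase reporter driven by Pax8 target thyroperoxidase promoter measured by SteadyGlo luminescence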
[12] = A549 cell cytotoxicity, dose response, cytotoxicity control, plate reader, cherry-pick, antagonist series (AID 743412); format: functional, cell-based
[13] = toxicity toward HepG2 liver cells – cell-based, plate reader, cherry-pick, antagonist series, cytotoxicity control, dose response (AID 743416); format: functional
[14] = blockade of melanocortin 4 receptor signaling – cell-based, plate reader, cherry pick, counter-screen for LGR2 antagonist project, dose response (AID 743444); format: functional;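 also: transfected HEK 293 cells stimulated with alpha-MSH peptide; potency of inhibitors of the alpha-MSH evoked signal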
[15] = A Cell Based Secondary Assay To Explore Cytotoxicity of Compounds that Sensitize Mycobacterium Tuberculosis to Beta-Lactam Antibiotics.; format: functional
[16] = molecular target: T5, Microphthalmia-associated transcription factor (Homo sapiens, UniProt O75030); experiment: reducers of TRPM1 reporter luminescence, concentration series – cell-based, SK-MEL-5, cherry-picked, set 3, MITF inhibitor project, dose response (AID 493073); format: functional;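 also: SK-MEL-5 melanoma cells with luciferase driven by the MITF target TRPM1 promoter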
T5 sequence (O75030 whole entry): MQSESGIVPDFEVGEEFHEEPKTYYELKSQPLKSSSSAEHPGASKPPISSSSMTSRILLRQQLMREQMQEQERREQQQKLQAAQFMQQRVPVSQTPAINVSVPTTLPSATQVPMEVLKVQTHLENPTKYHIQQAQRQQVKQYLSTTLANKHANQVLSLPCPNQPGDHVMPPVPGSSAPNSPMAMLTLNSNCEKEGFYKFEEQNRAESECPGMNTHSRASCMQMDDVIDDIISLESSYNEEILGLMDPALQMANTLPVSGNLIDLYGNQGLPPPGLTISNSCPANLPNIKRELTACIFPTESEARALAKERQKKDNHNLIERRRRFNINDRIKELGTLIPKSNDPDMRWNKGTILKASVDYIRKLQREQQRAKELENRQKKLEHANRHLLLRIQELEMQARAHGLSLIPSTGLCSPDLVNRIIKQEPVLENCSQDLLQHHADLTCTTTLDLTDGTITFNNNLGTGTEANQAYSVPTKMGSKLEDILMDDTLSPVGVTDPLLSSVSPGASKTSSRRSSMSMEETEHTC

[17] = molecular target: Serine/threonine-protein phosphatase (Homo sapiens, UniProt Q9BPW0); experiment: Counterscreen for inhibitors of PP1: fluorescence-based biochemical high throughput dose response assay to identify inhibitors of Protein Phosphatase 5 (PP5). [Related pubchem assays: 2034 (Summary (PP5 inhibitors)), 1987 (PP5 inhibitors in singlate), 2235 (PP1 inhibitors in singlate)]
[18] = molecular target: Serine/threonine-protein phosphatase PP1-alpha catalytic subunit (Homo sapiens, UniProt P62136); experiment: inhibition of protein phosphatase 1 activity – biochemical, fluorescence, dose response (AID 2403);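 also: phosphatase turnover of OMFP into fluorescent 3-O-methylfluorescein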
[19] = NIH3T3 cell viability loss – ATP luminescence, mouse fibroblasts, counter-screen, dose response (AID 2010); format: functional, cell-based;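 also: cells exposed to compound for about 90 hours before reading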
[20] = Trypanosoma cruzi growth suppression in host cells – NIH3T3 host cells, beta-gal luminescence, confirmation (AID 2044); format: functional, cell-based;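 also: intracellular parasites grown in NIH/3T3 mouse fibroblasts as host cells; luminescent beta-galactosidase reporter signal from transgenic T. cruzi replicating inside host cells; inhibitors lower the luminescence signal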
[21] = tested on: INS1; experiment: INS-1E survival protection against cytokine death – cell-based, luminescence, retest, dose response (AID 449756); format: functional; details: Rattus norvegicus;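 also: cell death triggered by IL-1 beta plus TNF-alpha plus IFN-gamma mixture; protective hits raise ATP signal compared with cytokine alone wells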

Sequence of Serine/threonine-protein phosphatase (Q9BPW0 whole entry): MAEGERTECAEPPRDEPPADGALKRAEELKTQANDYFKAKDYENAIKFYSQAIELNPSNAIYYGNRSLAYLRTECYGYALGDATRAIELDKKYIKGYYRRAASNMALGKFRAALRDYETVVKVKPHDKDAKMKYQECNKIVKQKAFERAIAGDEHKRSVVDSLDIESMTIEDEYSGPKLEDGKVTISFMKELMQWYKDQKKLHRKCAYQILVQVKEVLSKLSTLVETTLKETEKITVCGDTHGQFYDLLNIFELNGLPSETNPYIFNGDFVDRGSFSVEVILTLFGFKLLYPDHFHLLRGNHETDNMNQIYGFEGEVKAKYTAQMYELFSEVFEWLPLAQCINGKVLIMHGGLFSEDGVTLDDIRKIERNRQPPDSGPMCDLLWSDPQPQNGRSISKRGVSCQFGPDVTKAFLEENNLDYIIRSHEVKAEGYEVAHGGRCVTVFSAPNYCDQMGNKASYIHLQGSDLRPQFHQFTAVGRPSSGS
Sequence of Serine/threonine-protein phosphatase PP1-alpha catalytic subunit (P62136 whole entry): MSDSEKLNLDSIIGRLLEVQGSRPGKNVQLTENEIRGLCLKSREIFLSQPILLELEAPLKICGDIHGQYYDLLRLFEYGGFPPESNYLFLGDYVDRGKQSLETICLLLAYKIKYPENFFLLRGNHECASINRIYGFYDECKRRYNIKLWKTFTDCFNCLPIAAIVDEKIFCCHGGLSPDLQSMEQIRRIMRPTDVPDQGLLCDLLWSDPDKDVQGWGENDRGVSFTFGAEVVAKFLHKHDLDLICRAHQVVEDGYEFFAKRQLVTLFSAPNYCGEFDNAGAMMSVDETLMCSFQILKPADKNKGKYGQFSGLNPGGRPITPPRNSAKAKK
Sequence of Paired box protein Pax-8 (Q06710 whole entry): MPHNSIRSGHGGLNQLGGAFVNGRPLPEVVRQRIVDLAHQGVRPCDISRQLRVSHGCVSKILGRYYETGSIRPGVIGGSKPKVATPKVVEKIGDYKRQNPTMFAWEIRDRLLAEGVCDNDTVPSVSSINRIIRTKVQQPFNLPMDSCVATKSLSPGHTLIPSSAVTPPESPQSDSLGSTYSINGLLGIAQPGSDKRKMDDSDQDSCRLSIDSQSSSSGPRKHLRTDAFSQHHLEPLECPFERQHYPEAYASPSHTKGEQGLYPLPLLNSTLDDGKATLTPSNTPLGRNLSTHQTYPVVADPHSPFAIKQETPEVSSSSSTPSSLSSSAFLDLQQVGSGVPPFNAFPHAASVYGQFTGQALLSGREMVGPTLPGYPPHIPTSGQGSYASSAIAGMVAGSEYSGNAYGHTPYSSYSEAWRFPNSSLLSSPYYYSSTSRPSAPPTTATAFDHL
Sequence of Genome polyprotein (P29990 2492-3391 limits assumed): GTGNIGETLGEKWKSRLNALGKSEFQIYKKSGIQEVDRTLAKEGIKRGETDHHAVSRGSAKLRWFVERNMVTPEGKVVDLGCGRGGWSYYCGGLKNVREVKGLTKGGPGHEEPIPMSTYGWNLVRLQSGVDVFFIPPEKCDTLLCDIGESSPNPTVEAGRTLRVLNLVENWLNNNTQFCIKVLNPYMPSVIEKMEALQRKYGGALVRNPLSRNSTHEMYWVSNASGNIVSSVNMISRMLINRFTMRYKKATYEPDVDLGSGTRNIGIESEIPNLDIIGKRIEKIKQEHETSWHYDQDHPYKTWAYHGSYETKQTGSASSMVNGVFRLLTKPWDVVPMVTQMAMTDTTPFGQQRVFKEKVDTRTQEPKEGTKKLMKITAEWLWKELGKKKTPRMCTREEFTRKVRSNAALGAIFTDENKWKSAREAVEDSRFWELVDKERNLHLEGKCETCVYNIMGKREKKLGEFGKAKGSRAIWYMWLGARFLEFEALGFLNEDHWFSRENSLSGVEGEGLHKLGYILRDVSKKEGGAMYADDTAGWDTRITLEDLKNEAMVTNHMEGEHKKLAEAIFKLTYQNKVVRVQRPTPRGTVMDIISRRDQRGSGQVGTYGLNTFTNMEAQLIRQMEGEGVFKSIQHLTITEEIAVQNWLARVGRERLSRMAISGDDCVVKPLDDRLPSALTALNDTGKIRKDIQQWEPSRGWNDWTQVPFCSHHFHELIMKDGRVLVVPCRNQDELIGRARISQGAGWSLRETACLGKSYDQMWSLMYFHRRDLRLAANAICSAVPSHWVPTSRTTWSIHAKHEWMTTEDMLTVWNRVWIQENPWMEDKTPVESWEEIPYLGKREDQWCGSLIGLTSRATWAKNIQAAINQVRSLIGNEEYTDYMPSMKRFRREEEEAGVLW

## O=C(O)c1ccccc1-c1ccccc1C(=O)Nc1ccc(-c2nc3cc(Cl)ccc3o2)cc1
[1]
  EC50: > 150 µM (not active)
[2]
  IC50: > 50 µM (active)
[3]
  IC50: 54 µM (active)
[4]
  IC50: 32.6 µM (active)
[5]
  AC50: 3.18 µM (active)
[6]
  EC50: 7.55 µM (active)
[7]
  EC50: 14 µM (active)
[8]
  EC50: 11.7 µM (active)

## Cn1nnnc1Sc1ncnc2scc(-c3cccc(F)c3)c12
[9]
  AC50: 6.24 µM (active)
[10]
  AC50: 6.26 µM (active)
[11]
  AC50: 2.64 µM (active)
[12]
  AC50: 7.53 µM (active)
[13]
  AC50: 6.73 µM (active)
[14]
  AC50: 12 µM (active)
[15]
  CC50: 17.6 µM (active)
[16]
  AC50: 5.98 µM (active)

## COc1ccc(Sc2nc(-c3ccccn3)ncc2OC)cc1
[17]
  IC50: > 67 µM (not active)
[18]
  IC50: 6.04 µM (active)
[19]
  EC50: > 60 µM (inconclusive)
[20]
  EC50: 1.9 µM (active)
[21]
  AC50: 5.13 µM (active)

— ChEMBL document CHEMBL1201862, “PubChem BioAssay data set” (2004)
